# B1: P76 (peptide, listed as Homo sapiens)
# chain: VFFKRAAEGFFRMNKLKESSDTNPKPYCMAAPMGLTENNRNRKKSYRETNLKAVSWPLNHT
# B2: P77 (peptide, listed as Homo sapiens)
# chain: B1 chain
# B3: P19 (peptide, listed as Homo sapiens)
# chain: WTPIPVLTRWPLPHPPPWRRATSCRMARSSPSATSGSSVRRRCSSLPSWVWNLAASTRPRSTPS
# Experiments:
# [1] = system: CD8+ T cells in PBMCs from patients with metastatic castrate-resistant prostate cancer; experiment: Patient PBMC restimulation assay (TNFα+IFNγ+ CD8+ T cells); type: cell-based, human; conditions: 9mer peptide; for Maximum fold change over negative control: TNFα+IFNγ+CD8+ T cells, highest across PBMC donors; for Maximum frequency of TNFα+IFNγ+CD8+ T cells (Percent): greatest frequency among all tested PBMC donors
# Procedure: PBMCs from human patients with metastatic castrate-resistant prostate cancer were thawed using media (RPMI 1640 supplemented with Glutamax, 10% HI FBS, and IX Sodium Pyruvate). Cells were counted and plated in a 96 well round bottom microplate at a concentration of 250,000 viable cells per well. Lyophilized peptides were solubilized in 100% DMSO and diluted in media to 10 μg/mL. Neoantigen peptides were added in equal volume to PBMCs for a final concentration of 5 μg/mL. CEF Peptide Pool “Plus” (Cellular Technologies, Ltd.) was utilized as a positive control and DMSO at the same final concentration as the experimental peptides was utilized as a negative control. Human IL-15 (Peprotech) was added to all wells at final concentration of 10 ng/mL.
# Plates were incubated at 37° C. (5% CO2) for a total of 13 days. Media was refreshed every 2 days with IL-15 (10 ng/mL final concentration) and IL-2 (R&D systems, 10 IU/mL final concentration). On day 12, PBMCs were re-stimulated with identical experimental peptides or controls, at same concentration as peptide stimulation on Day 1. After 1-hour incubation, protein Inhibitor Cocktail (eBioscience) was added to every well and plate was incubated overnight.
# On day 13, cells were stained for intracellular flow cytometry analysis. The cells were washed with PBS and stained with Live/Dead Fixable Aqua Dead Cell stain (ThermoFisher). Following the live/dead stain, cells were blocked using Biotin-Free Fc Receptor Blocker (Accurate Chemical & Scientific Corp). Extracellular cellular flow panel (1 μL/antibody per well in 50 μL) consisted of CD3 PerCP-Cy5.5 (Biolegend), CD4 BV421 (Biolegend), and CD8 APC-Cy7 (Biolegend). After extracellular staining, cells were fixed using Foxp3/Transcription Factor Staining Buffer Set (eBioscience) and stained for intracellular proteins (1:50 dilution) using TNFα FITC (R&D Systems) and IFNγ BV785 (Biolegend). Cells were washed and resuspended in stain buffer and analyzed using a BD Celesta flow cytometer.
# Flow cytometry cell staining analysis was completed using Flow Jo v10. Cells were gated on live, singlet, CD3+ cells. The CD8+ T cells were analyzed for TNFα/IFNγ expression and the frequency of double positive TNFα/IFNγ CD8+ T cells was recorded. Responses were assessed to be positive when the frequency of double positive TNFα/IFNγ CD8+ T cells due to stimulation with an experimental peptide was increased greater than or equal to 2-fold over the DMSO only negative control for that patient. Peptides were analyzed in 1 to 7 patient samples.
# The 9 mer fragments shown in Table 13 were assessed for their ability to activate T cells using the Patient PBMC restimulation assay described in Example 1 using TNFα and IFNγ production by CD8^+ T cells as a readout. Self-antigens shown in Table 15 were also used in the assays. […] PBMCs from ten patients were evaluated.
# HLA-A*01:01 = HLA-A*01:01 (Homo sapiens, UniProt P04439, A114D/A174V/A182V/D101N/D185E/E176A/E190D/L180R/Q94H/R68K/S129P/T187R/V100A/V91M/W191G); experiment: In vitro binding to class I MHC (UV peptide exchange, HLA class I ELISA); conditions: 100% = same binding as positive control peptide
# Procedure: (§1) The 9 mer peptides identified by bioinformatics analysis were analyzed for their binding propensities to 6 common HLA class I alleles (HLA-A*01:01, A*02:01, A*03:01, A*24:02, B*07:02, B*08:01). The principle of the method is briefly described below and consists of two parts, one involving exchange of peptide with a positive control induced by Ultraviolet (UV) radiation, and the second is an enzyme immunoassay to detect stable HLA-peptide and empty HLA complexes. HLA-bound peptides are critical for the stability of the HLA complex. A conditional HLA class I complex was stabilized by an UV-labile peptide utilizing a different peptide (Pos) for each HLA (Pos: HLA-A*01:01: […](SEQ ID NO: 409), HLA-A*02:01: […] (SEQ ID NO: 410), HLA-A*03:01: […] (SEQ ID NO: 411), HLA-A*24:02: […] (SEQ ID NO: 412), HLA-B*07:02: […] (SEQ ID NO: 413), HLA-B*08:01: […] (SEQ ID NO: 414), which could be cleaved by UV irradiation when bound to the HLA molecule. Upon cleavage, the resulting peptide fragments dissociated from the HLA class I complex since their length was insufficient to bind stably to HLA. Under the conditions in which peptide cleavage was performed (neutral pH, on melting ice), the peptide-free HLA complex remained stable.
# (§2) The exchange efficiency between the peptide of interest and Pos was analyzed using an HLA class I ELISA. The combined technologies allowed the identification of ligands for an HLA molecule of interest which are potentially immunogenic.
# (§3) Exchange control peptide Pos was a high affinity binder to the relevant HLA class I allele while exchange control peptide Neg was a non-binder. The UV control represented UV-irradiation of conditional HLA class I complex in the absence of a rescue peptide.
# (§4) The HLA class I ELISA is an enzyme immunoassay based on the detection of beta2-microglobulin (B2M) of (peptide-stabilized) HLA class I complexes. To this end streptavidin was bound onto polystyrene microtiter wells. After washing and blocking, HLA complex present in exchange reaction mixtures or ELISA controls was captured by the streptavidin on the microtiter plate via its biotinylated heavy chain. Non-bound material was removed by washing. Subsequently, horseradish peroxidase (HRP)-conjugated antibody to human B2M was added. The HRP-conjugated antibody binds only to an intact HLA complex present in the microtiter well because unsuccessful peptide exchange results in disintegration of the original UV-sensitive HLA complex upon UV illumination. In the latter case B2M was removed during the washing step. After removal of non-bound HRP conjugate by washing, a substrate solution was added to the wells. A colored product formed in proportion to the amount of intact HLA complex present in the samples. After the reaction was terminated by the addition of a stop solution, absorbance was measured in a microtiter plate reader. The absorbance was normalized to the absorbance of an exchange control peptide (represents 100%). Suboptimal HLA binding of peptides with a moderate to low affinity for HLA class I molecules can also be detected by this ELISA technique (Rodenko, B et al. (2006) Nature Protocols 1: 1120-32).
# (§5) Peptides that had 10% or greater exchange efficiency in one of the 6 HLA alleles were considered for further immunogenicity testing and analysis.
# (§6) Binding of select neoepitopes to HLA-A*01:01, HLA-A*02:01, HLA-A*03:01, HLA-A*24:02, HLA-B*07:02 and HLA-B*08:01 was evaluated using the assay described in Example 1. […] As a criterion for further evaluation, peptides with an exchange rate of at least 10% with the corresponding Pos peptide for at least one of the 6 HLA alleles that we considered for further evaluation. The exchange rates with the allele specific Pos peptides, of the 24 neoantigens so identified are summarized below in Table 17. Higher percentages correspond to stronger binding to the HLA allele.
# HLA-A*02:01 = HLA-A*02:01 (Homo sapiens, UniProt P04439, D140Y/D185E/D98H/E176V/E277Q/G131W/G231S/I119V/I121R/I166T/I218V/L300P/L318F/N151K/N90K/P208A/P217A/Q86G/Q94H/R138H/R169H/T345S); experiment: as above; conditions: 100% = same binding as positive control peptide
# Procedure: as §1, §2, §3, §4, §5, §6
# HLA-A*03:01 = HLA-A*03:01 (Homo sapiens, UniProt P04439); experiment: as above; conditions: 100% = same binding as positive control peptide
# Procedure: as §1, §2, §3, §4, §5, §6
# HLA-A*24:02 = HLA-A*24:02 (Homo sapiens, UniProt P04439, D101N/D140Y/D185E/E176V/E190D/F33S/G103R/G107R/I119L/I121M/I306V/K335N/L105A/L180Q/L300P/N151K/N90K/Q86E/Q94H/R106L/R138H/R89G/T104I/T345S/V100E/W191G/Y123F); experiment: as above; conditions: 100% = same binding as positive control peptide
# Procedure: as §1, §2, §3, §4, §5, §6
# HLA-B*07:02 = HLA-B*07:02 (Homo sapiens, UniProt P01889); experiment: as above; conditions: 100% = same binding as positive control peptide
# Procedure: as §1, §2, §3, §4, §5, §6
# HLA-B*08:01 = HLA-B*08:01 (Homo sapiens, UniProt P01889, A93T/A95T/D138N/E176V/E187T/K202T/Q94N/R180D/S35A/V36M/Y33D/Y91F); experiment: as above; conditions: 100% = same binding as positive control peptide
# Procedure: as §1, §2, §3, §4, §5, §6
Molecule,Maximum frequency of TNFα+IFNγ+CD8+ T cells (Percent) [1] [%],further results
P98: peptide used for stimulation of PBMC samples (FIG. 5D); sequence in a table not shown (DDRNTFDIVWWCPMSRLRLALTVPPSTTTTCVTVPAWAA; listed as Homo sapiens) [Neoantigen P98],1.000,"Maximum fold change over negative control [1]: 14.93; Exchange rate with allele specific Pos peptide, HLA-A*01:01 (HLA-A*01:01): 2.5%; Exchange rate with allele specific Pos peptide, HLA-A*02:01 (HLA-A*02:01): 7.9%; Exchange rate with allele specific Pos peptide, HLA-A*03:01 (HLA-A*03:01): 51.1%; Exchange rate with allele specific Pos peptide, HLA-A*24:02 (HLA-A*24:02): −0.1%; Exchange rate with allele specific Pos peptide, HLA-B*07:02 (HLA-B*07:02): 6.7%; Exchange rate with allele specific Pos peptide, HLA-B*08:01 (HLA-B*08:01): 2.4%"
P48 (VQPIARELYQFTFDLLI; listed as Homo sapiens) [Neoantigen P48],0.220,–
P97 (GYLRMQGLMAQRLLLR; listed as Homo sapiens) [Neoantigen P97],0.160,–
GVPGDSTRRAVRRMNTF (listed as Homo sapiens) [Neoantigen P16],4.620,–
P46 (DDRNTFDIVWWCPMSRLRLALTVPPSTTTTCVTVPAWAA; listed as Homo sapiens) [Neoantigen P46],0.140,–
P17 (GVPGDSTRRAVRRMNTF; listed as Homo sapiens) [Neoantigen P17],0.130,–
P56 (PKSEVRAKCKFSILNAK; listed as Homo sapiens) [Neoantigen P56],1.620,–
P58 (MMAEIISVHVPKILSGK; listed as Homo sapiens) [Neoantigen P58],5.370,–
P27 (LHPQRETFTPRWSGANYWKLAFPVGAEGTFPAAATQRGVVRPA; listed as Homo sapiens) [Neoantigen P27],0.430,–
P59 (LHPDSGNMVENGCYLRR; listed as Homo sapiens) [Neoantigen P59],3.010,–
P50 (QMAVIQYSCMGLMVFAM; listed as Homo sapiens) [Neoantigen P50],0.190,–
P60 (CYLRRQKRLKCEKQPGA; listed as Homo sapiens) [Neoantigen P60],0.340,–
YEAGMTLGEKFRVGNCKHLKMTRP (listed as Homo sapiens) [Neoantigen P82],0.970,–
P61 (MFENGCYLGRQKRFKCE; listed as Homo sapiens) [Neoantigen P61],0.084,–
YEAGMTLGGKILFFLFLLLPLSPFSLIF (listed as Homo sapiens) [Neoantigen P87],0.120,–
P37 (MAGGVLRRLLCREPDRDGDKGASREETVVPLHIGDPVVLPGIGQCYSALF; listed as Homo sapiens) [Neoantigen P37],1.160,–
SLYHREKQLIAMDSAI (listed as Homo sapiens) [Neoantigen P22],0.120,"Maximum fold change over negative control [1]: 5.00; Exchange rate with allele specific Pos peptide, HLA-B*07:02 (HLA-B*07:02): 8.3%"
P73 (DSSGNLLERNSFEVRV; listed as Homo sapiens) [Neoantigen P73],0.110,–
NSKMALNSLNSIDDAQLTRIAPPRSHCCFWEVNAP (listed as Homo sapiens) [Neoantigen P35],0.064,–
B1,0.170,Maximum fold change over negative control [1]: 2.30
B2,0.160,Maximum fold change over negative control [1]: 3.24
B3,0.480,–
